# Like-named read-outs stand apart in the source and are kept apart here.
# Key:
# plaque psoriasis [1] = tested on: plaque psoriasis
# From the text: In another example, a person with plaque psoriasis on the extensor surface of their right knee for over 15 years was started on magnesium treatment. Prior treatment with topical hydrocortisone was stopped two weeks prior. Applications using Johnson+Johnson Large Sterile Waterproof Pads with QUILTVENT™ Technology. 1.8 cc solution of 20% magnesium sulfate solution (APP Fresenius Kabi Lake Zurich, Ill. NDC63323-064-10, 50% solution diluted with sterile water) was applied every third day for eight hour durations. […] After the 10 applications of the 20% magnesium sulfate solution, the strength of the solution was increased to 40% for the next ten applications and to 50% for the following 10 applications.
# A trial using a 50% solution of magnesium chloride was made by dissolving the magnesium flakes with distilled water (Hinkley Springs) and applied to the Johnson+Johnson Large Sterile Waterproof Pads with QUILTVENT™. Applications were initially for eight hours every third day. […] Following the twentieth application the applications were increased to twelve hour duration with frequency increased to every other day. […] Applications were stopped to determine if total remission been achieved. […] Treatment was continued for three additional treatments.
# adhesive capsulitis [2] = settings: 1.8 cc of 58% wt/vol on waterproof pad, normal skin, kept in place 24 hours
# From the text: The same Johnson+Johnson waterproof pad was applied to normal skin over my right shoulder affected with an exacerbation of adhesive capsulitis.
# [3] = tested on: sacroiliac (SI) joints pain and stiffness
# From the text: In another example, a trial of transdermal magnesium ions delivered via iontophoresis in an effort to relieve pain, tenderness, and stiffness localized to sacroiliac (SI) joints. A patient with symptoms including exacerbation of chronic low back pain associated with pain, stiffness, and tenderness of both sacroiliac joints with pain radiating to the right iliac crest over a five week period. Symptoms were moderate to severe enough to make standing erect difficult at times and walking was slow and deliberate.
# An iontophoresis pad with 120 mg of magnesium chloride diluted in 4 cc of distilled water was placed over the right sacroiliac joint for 80 minutes for delivery of 40 mA minutes with a delivery setting of 0.5 mA/minute at 8:00 pm.
# A second identical dose was delivered with the same iontophoresis electrodes in place. […] Ten minutes following delivery of the first dose to the […] SI joint a second identical iontophoresis dose was delivered with the same electrodes in place.
# [4] = tested on: pain and stiffness of the lower back
# Procedure: In an effort to determine if passive diffusion of magnesium ions applied over a larger surface area under a hydrocolloid dressing could affect the pain and stiffness of the lower back approximately 0.8 mL of 50% magnesium chloride solution was sprayed on a 4″×4″ hydrocolloid patch (DuoDERM™ Extra Thin CGF Dressing, by ConvaTec) and the moist patch was placed over the lumbar spine where the pain was now localized. This was kept in place during an 8 hour period. […] A third application of a pre-moistened Duoderm dressing, this time with approximately 0.5 mL of 40% magnesium chloride solution, sprayed onto the surface prior to application to the lumbar spine area and worn for 48 hours continuously.
# chronic lower back pain = tested on: chronic lower back pain
# From the text: In an effort to determine a threshold for therapeutic response the patient was started on gradually increasing concentrations of magnesium chloride placed on a 4 in.×4 in. hydrocolloid dressing (DupDERM™ Extra Thin CGF, by Convatec). Dosages were always approximately 1 cc sprayed onto surface of the dressing using a 20% solution of Magnesium Chloride (Mylan, NDC 674-134-50) diluted to strengths of 2%, 5%, 10% 15%, and undiluted 20%. Sterile water was used as the diluent (Hospira NDC 0409-4887-17). Dressings were kept in place for 8 hours. This method of application continued with daily graduation in the strength of solution applied. […] Using the same method of application, the dosages were increased to 30%, 40% and 50% solutions now made with magnesium flakes dissolved in distilled water.
# plaque psoriasis [5] = tested on: plaque psoriasis; remark: listed apart in the source
# From the text: Johnson+Johnson Large Sterile Waterproof Pads with QUILTVENT™ Technology were obtained. These are similar to large waterproof bandaids measuring 2.875 inches×4 inches with a central pad that measured 1.85 inches×3 inches.
# adhesive capsulitis [6] = settings: for pain with active range of motion of the shoulder: after 16 hours of continued use
# Procedure: A second attempt using transdermal magnesium treatment to affect the pain and inflammation associated with adhesive capsulitis was performed. A 1.3 cc of 50% magnesium sulfate solution (APP Fresenius Kabi Lake Zurich, Ill. NDC63323-064-10) was placed on the positive dispersal pad in an iontophoresis device (iontoPatch 80 manufactured by Travini Medical). The NaCl solution supplied with the device was placed on the negative patch. The positive patch was placed over the tender area on the lateral shoulder and kept in place for 10 hours. It was applied at 8:00 pm and removed the next morning before showering at 6:00 am. […] After showering a second replacement patch prepared in the same manner was placed at 6:15 am, 15 minutes after the first iontoPatch was removed.
# The positive side of the patch now placed over a tender area on the anterior shoulder. The second patch application was kept in place for a total of 13.5 hours.
# [7] = tested on: recurrent plaque psoriasis
# [8] = 50% solution, after 15 applications
# [9] = 50% solution, after 20 applications plus ten 12 h applications every other day
# [10] = 50% solution, two weeks after applications were stopped
# [11] = 1.8 cc of 20% solution, 8 h every third day, following 7 applications
# [12] = after increasing strength to 40% and 50% (10 applications each)
smiles,measurement,setting,value
[Cl-].[Cl-].[Mg+2] [magnesium chloride],"fine scaliness and inflammation, early response","plaque psoriasis [1]; 50% solution, 8 h every third day, within days of starting",immediate improvement
same,dermal hypertrophy,plaque psoriasis [1]; [8],improvement
same,fine scales,plaque psoriasis [1]; [8],elimination
same,improvement in inflammation,plaque psoriasis [1]; [8],90-95%
same,dermal hypertrophy,plaque psoriasis [1]; [9],resolved
same,fine scaliness,plaque psoriasis [1]; [9],resolved
same,finding under double polarized light head set apparatus,plaque psoriasis [1]; [10],small erythematous islands were visualized
same,skin appearance,plaque psoriasis [1]; [10],appeared normal
same,pain associated with adhesive capsulitis,adhesive capsulitis [2],no improvement
same,improvement in pain and stiffness of the right SI joint,"[3]; 120 mg in 4 cc water, iontophoresis 40 mA minutes, five hours after the first dose",approximately 50%
same,duration of the improvement,[3]; after two iontophoresis doses on each SI joint,lasted throughout the next day
same,improvement in pain and stiffness of the right SI joint,"[3]; two iontophoresis doses of 120 mg in 4 cc, five hours after completion",80%
same,reduction in pain and stiffness of the left SI joint,"[3]; two iontophoresis doses of 120 mg in 4 cc, two hours after treatments ended",~90%
same,pain and stiffness in the lower back,[4]; 50% solution on hydrocolloid dressing for a total of 9.5 hours,complete relief
same,skin at the application area after the first patch,"[4]; 50% solution on hydrocolloid patch, after removal of the first patch",slightly hyperemic
same,sensation on application of the second patch,"[4]; 50% solution on hydrocolloid patch, second application to the same area",transient burning sensation
same,improvement in pain and stiffness of the lower back,"[4]; about 0.8 mL of 50% solution on 4x4 in. hydrocolloid patch, 8 hour period",80%
same,duration of complete relief,[4]; after 9.5 hours of 50% solution on hydrocolloid dressing,48 h
same,severity of recurring discomfort and stiffness relative to the original pain and stiffness,[4]; on the third day after the 50% solution patches,20%
same,discomfort and stiffness of the lower back,"[4]; third dressing, about 0.5 mL of 40% solution, after eight hours",Resolution
same,improvement in pain and stiffness,"chronic lower back pain; 30%, 40% and 50% solutions on hydrocolloid dressing, 8 hours",incremental therapeutic benefit
same,greatest benefit estimated by the patient,"chronic lower back pain; 50% solution on hydrocolloid dressing, after the 8 hour application",over 70%
same,improvement in pain or stiffness,"chronic lower back pain; about 1 cc of 2% or 5% solution on hydrocolloid dressing, 8 hours",no therapeutic improvement
same,improvement in pain and stiffness,"chronic lower back pain; about 1 cc of 10% solution on hydrocolloid dressing, after 8 hours",10-20%
same,"improvement in pain and stiffness, estimate of the patient","chronic lower back pain; about 1 cc of 15% and 20% solution on hydrocolloid dressing, 8 hours",20-40%
same,skin finding over the previous psoriasis plaque,"plaque psoriasis [5]; 58% wt/vol solution kept in place for 24 hour periods, resolved with days",small 2-4 mm painless flat scabs developed
same,time until erythema and scales of the plaque started to improve,"plaque psoriasis [5]; 58% wt/vol solution on occlusive dressing, following the first application",≤ 24 h
same,remission status of the psoriasis plaque,"plaque psoriasis [5]; 58% wt/vol solution, twelve applications, by the start of week four",complete remission
same,duration of complete remission of the psoriatic lesion,"plaque psoriasis [5]; after pads, prophylactic daily 50% wt/vol spray into the fourth month",continued into the twelfth month
O=S(=O)([O-])[O-].[Mg+2] [magnesium sulfate],itching,plaque psoriasis [1]; [11],almost total relief
same,reduction in scaling,plaque psoriasis [1]; [11],50%
same,course of improvement,"plaque psoriasis [1]; 20%, then 40% and 50% solution",plateaued following the first 10-12 applications
same,scaling between applications,plaque psoriasis [1]; [12],persistent scaling
same,thickness of persisting dermal hypertrophy,plaque psoriasis [1]; [12],approximately 3 mm
same,improvement in pain with active range of motion of the shoulder,"adhesive capsulitis [6]; 1.3 cc of 50% solution, iontophoresis, after 10 hours",40%
same,"active range of motion, affected right versus unaffected left shoulder","adhesive capsulitis [6]; 50% solution, iontophoresis, after 16 hours",no difference
same,pain with active range of motion of the shoulder,"adhesive capsulitis [6]; 50% solution, iontophoresis",no pain
same,pain with active range of motion of the shoulder,"adhesive capsulitis [6]; 50% solution, iontophoresis, listed as magnesium",complete relief
same,reduction in pain with active range of motion of the shoulder,"adhesive capsulitis [6]; 50% solution, iontophoresis, patches worn for a total of 12 hours",80%
same,duration of the beneficial effect,adhesive capsulitis [6]; after two iontophoresis patches with 50% solution,no further treatment was required over the next 10 months
same,resolution of scaliness and erythema,"[7]; 1 cc of 1% solution intra-dermal once daily for four days, not covered, day 14 following the injections",80%
same,inflammatory process and erythema,"[7]; 1 cc of 1% solution intra-dermal once daily for four days, not covered, over the next few days",reduction
same,remission status of the recurrent 1 cm plaque,"[7]; after 1% injections plus iontophoresis of 1.5 cc 50% solution on days 16 and 18, by day 28",complete remission
same,effect on a small area of recurrent plaque psoriasis,[7]; intra-dermal injections of 1% solution,effective
